According to patent US8846918B2, “Compounds useful as inhibitors of ATR kinase” (Vertex Pharmaceuticals Incorporated, priority 2011, dated 2014):
pKi: −log10 of the molar value.

Target: T1, ATR kinase (Homo sapiens, UniProt Q13535)
T1 construct: Assays were carried out at 25° C. in the presence of 5 nM full-length ATR
Assay: ATR Inhibition Assay (radioactive-phosphate incorporation)
Type: biochemical
Conditions: Ki(app); 5 nM full-length ATR, 10 μM ATP, 800 μM target peptide, 25° C.
Protocol: Compounds were screened for their ability to inhibit ATR kinase using a radioactive-phosphate incorporation assay. Assays were carried out in a mixture of 50 mM Tris/HCl (pH 7.5), 10 mM MgCl2 and 1 mM DTT. Final substrate concentrations were 10 μM [γ-33P]ATP (3 mCi 33P ATP/mmol ATP, Perkin Elmer) and 800 μM target peptide (ASELPASQPQPFSAKKK).
Assays were carried out at 25° C. in the presence of 5 nM full-length ATR. An assay stock buffer solution was prepared containing all of the reagents listed above, with the exception of ATP and the test compound of interest. 13.5 μL of the stock solution was placed in a 96 well plate followed by addition of 2 μL of DMSO stock containing serial dilutions of the test compound (typically starting from a final concentration of 15 μM with 3-fold serial dilutions) in duplicate (final DMSO concentration 7%). The plate was pre-incubated for 10 minutes at 25° C. and the reaction initiated by addition of 15 μL [γ-33P]ATP (final concentration 10 μM).
The reaction was stopped after […] by the addition of 300 μL 0.1M phosphoric acid containing 2 mM ATP. […]
After removing mean background values for all of the data points, Ki(app) data were calculated from non-linear regression analysis of the initial rate data using the Prism software package (GraphPad Prism version 3.0cx for Macintosh, GraphPad Software, San Diego Calif., USA).

T1 sequence (Q13535 whole entry): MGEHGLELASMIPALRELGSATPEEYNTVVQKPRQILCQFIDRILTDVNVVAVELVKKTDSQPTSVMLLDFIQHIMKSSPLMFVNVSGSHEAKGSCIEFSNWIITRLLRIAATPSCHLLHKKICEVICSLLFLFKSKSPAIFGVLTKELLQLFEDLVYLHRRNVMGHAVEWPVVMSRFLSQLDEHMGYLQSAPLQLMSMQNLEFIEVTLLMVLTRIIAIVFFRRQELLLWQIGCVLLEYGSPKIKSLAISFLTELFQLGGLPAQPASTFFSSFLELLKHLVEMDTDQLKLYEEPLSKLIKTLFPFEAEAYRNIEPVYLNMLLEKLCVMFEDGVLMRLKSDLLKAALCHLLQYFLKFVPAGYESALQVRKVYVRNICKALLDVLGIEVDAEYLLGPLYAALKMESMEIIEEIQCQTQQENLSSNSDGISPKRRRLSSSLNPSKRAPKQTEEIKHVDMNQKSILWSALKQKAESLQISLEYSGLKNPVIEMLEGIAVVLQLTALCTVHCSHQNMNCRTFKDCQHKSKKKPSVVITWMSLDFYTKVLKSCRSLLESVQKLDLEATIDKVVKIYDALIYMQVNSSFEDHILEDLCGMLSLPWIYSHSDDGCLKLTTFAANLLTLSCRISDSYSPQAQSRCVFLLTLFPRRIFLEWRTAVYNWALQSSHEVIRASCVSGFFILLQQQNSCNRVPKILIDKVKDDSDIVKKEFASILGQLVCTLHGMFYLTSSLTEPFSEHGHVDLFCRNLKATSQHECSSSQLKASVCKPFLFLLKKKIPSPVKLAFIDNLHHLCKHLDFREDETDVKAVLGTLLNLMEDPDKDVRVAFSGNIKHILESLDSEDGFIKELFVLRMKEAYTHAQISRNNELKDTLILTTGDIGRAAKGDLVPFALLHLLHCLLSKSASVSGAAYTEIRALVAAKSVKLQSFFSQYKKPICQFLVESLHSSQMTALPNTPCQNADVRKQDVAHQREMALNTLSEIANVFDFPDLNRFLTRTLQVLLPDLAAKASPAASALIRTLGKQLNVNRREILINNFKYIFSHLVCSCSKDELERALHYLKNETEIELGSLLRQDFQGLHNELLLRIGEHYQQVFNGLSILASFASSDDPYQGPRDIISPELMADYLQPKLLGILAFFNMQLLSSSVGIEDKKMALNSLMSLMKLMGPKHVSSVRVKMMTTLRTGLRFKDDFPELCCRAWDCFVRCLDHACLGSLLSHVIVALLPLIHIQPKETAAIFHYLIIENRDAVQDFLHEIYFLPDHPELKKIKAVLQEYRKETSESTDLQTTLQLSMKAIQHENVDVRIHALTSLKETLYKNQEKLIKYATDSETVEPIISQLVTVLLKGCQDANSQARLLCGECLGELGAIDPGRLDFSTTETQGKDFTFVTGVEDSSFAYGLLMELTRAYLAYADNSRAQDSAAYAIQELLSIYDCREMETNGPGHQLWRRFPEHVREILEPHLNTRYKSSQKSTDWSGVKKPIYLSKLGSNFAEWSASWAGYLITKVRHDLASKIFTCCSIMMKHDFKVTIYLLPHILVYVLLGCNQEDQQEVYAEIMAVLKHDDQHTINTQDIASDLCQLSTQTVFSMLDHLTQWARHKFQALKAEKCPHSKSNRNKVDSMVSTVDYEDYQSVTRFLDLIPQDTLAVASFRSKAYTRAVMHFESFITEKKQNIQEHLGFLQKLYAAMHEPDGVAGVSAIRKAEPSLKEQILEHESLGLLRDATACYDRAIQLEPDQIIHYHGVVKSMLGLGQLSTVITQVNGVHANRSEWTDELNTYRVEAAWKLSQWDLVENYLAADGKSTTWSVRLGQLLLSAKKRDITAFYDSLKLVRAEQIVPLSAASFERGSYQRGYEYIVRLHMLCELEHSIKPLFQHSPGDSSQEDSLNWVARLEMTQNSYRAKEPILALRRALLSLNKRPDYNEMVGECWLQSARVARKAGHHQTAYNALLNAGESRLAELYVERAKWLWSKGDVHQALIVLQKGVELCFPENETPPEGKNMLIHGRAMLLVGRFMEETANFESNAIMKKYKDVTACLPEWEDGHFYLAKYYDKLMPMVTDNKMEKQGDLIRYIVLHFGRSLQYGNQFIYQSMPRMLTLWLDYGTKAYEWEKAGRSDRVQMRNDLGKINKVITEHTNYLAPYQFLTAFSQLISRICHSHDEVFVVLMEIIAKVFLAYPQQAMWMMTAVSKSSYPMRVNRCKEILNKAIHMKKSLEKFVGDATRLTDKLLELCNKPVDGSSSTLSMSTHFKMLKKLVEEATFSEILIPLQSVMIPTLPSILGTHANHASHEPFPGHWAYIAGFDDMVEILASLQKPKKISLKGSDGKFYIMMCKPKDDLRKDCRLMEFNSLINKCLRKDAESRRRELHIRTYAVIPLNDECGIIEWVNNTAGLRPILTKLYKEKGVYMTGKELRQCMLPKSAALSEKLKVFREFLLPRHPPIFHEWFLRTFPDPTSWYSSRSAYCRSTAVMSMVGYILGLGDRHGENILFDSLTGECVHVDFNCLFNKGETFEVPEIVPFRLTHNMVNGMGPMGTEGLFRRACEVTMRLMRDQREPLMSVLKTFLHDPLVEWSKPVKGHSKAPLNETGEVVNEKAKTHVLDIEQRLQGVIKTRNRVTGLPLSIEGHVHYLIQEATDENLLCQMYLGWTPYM

Compound | pKi
2-(4-(5-amino-6-(4-iodo-3-(4-(((tetrahydro-2H-pyran-4-yl)amino)methyl)phenyl)isoxazol-5-yl)pyrazin-2-yl)pyridin-2-yl)-2-methylpropanenitrile [Compound I-2] | 7.05
CC(C)S(=O)(=O)c1ccc(-c2cnc(N)c(-c3onc(-c4ccc(CNC5CCOCC5)cc4)c3I)n2)cc1 [Compound I-1, 3-(4-iodo-3-(4-(((tetrahydro-2H-pyran-4-yl)amino)methyl)phenyl)isoxazol-5-yl)-5-(4-(isopropylsulfonyl)phenyl)pyrazin-2-amine] | 7.80
